Data published in patent US20160367623A1, “AGONISTS OF GUANYLATE CYCLASE USEFUL FOR THE TREATMENT OF GASTROINTESTINAL DISORDERS, INFLAMMATION, CANCER AND OTHER DISORDERS” (priority 2015, published 2016).
Bridge positions count the residues as written; N and C are the ends. Ends that are not written are not given here.

Tested on: patients with chronic idiopathic constipation (CIC)
Experiment: Second phase 3 CIC trial: change from baseline in stool consistency (BSFS)
Assay type: in vivo, human
Settings: 3 mg
[1] = Post-Treatment Week 13, All Randomized (includes Duplicate Patients)
[2] = Post-Treatment Week 13, ITT Population
[3] = Post-Treatment Week 13, ITT Population-Excluding Duplicate Patients
[4] = Post-Treatment Week 14, All Randomized (includes Duplicate Patients)
[5] = Post-Treatment Week 14, ITT Population
[6] = Post-Treatment Week 14, ITT Population-Excluding Duplicate Patients
[7] = Week 1, All Randomized (includes Duplicate Patients)
[8] = Week 1, ITT Population-Excluding Duplicate Patients
[9] = Week 2, All Randomized (includes Duplicate Patients)
[10] = Week 2, ITT Population-Excluding Duplicate Patients
[11] = Week 3, All Randomized (includes Duplicate Patients)
[12] = Week 3, ITT Population-Excluding Duplicate Patients
[13] = Week 4, All Randomized (includes Duplicate Patients)
[14] = Week 4, ITT Population-Excluding Duplicate Patients
[15] = Week 5, All Randomized (includes Duplicate Patients)
[16] = Week 5, ITT Population-Excluding Duplicate Patients
[17] = Week 6, All Randomized (includes Duplicate Patients)
[18] = Week 6, ITT Population-Excluding Duplicate Patients

Substance: Asn^1-Asp^2-Glu^3-Cys^4-Glu^5-Leu^6-Cys^7-Val^8-Asn^9-Val^10-Ala^11-Cys^12-Thr^13-Gly^14-Cys^15-Leu^16 (NDECELCVNVACTGCL; disulfide 4-12, 7-15) [Plecanatide, uroguanylin analogue, guanylate cyclase-C agonist; (C4:C12, C7:C15) bicycle peptide]
- Change from Baseline in Stool Consistency, Difference from Placebo [1]: 0.24
- Change from Baseline in Stool Consistency, LS Mean (SE) [1]: 1.23 (0.069)
- Change from Baseline in Stool Consistency, Mean (SD) [1]: 1.27 (1.358)
- Change from Baseline in Stool Consistency, Difference from Placebo [2]: 0.23
- Change from Baseline in Stool Consistency, LS Mean (SE) [2]: 1.22 (0.071)
- Change from Baseline in Stool Consistency, Mean (SD) [2]: 1.25 (1.368)
- Change from Baseline in Stool Consistency, Difference from Placebo [3]: 0.23
- Change from Baseline in Stool Consistency, LS Mean (SE) [3]: 1.22 (0.072)
- Change from Baseline in Stool Consistency, Mean (SD) [3]: 1.25 (1.374)
- Change from Baseline in Stool Consistency, Difference from Placebo [4]: 0.15
- Change from Baseline in Stool Consistency, LS Mean (SE) [4]: 1.14 (0.071)
- Change from Baseline in Stool Consistency, Mean (SD) [4]: 1.19 (1.393)
- Change from Baseline in Stool Consistency, Difference from Placebo [5]: 0.14
- Change from Baseline in Stool Consistency, LS Mean (SE) [5]: 1.15 (0.073)
- Change from Baseline in Stool Consistency, Mean (SD) [5]: 1.19 (1.402)
- Change from Baseline in Stool Consistency, Difference from Placebo [6]: 0.14
- Change from Baseline in Stool Consistency, LS Mean (SE) [6]: 1.15 (0.074)
- Change from Baseline in Stool Consistency, Mean (SD) [6]: 1.18 (1.408)
- Change from Baseline in Stool Consistency, Difference from Placebo [7]: 0.68
- Change from Baseline in Stool Consistency, LS Mean (SE) [7]: 1.26 (0.070)
- Change from Baseline in Stool Consistency, Mean (SD) [7]: 1.38 (1.464)
- Change from Baseline in Stool Consistency, Difference from Placebo (Week 1, ITT Population): 0.68
- Change from Baseline in Stool Consistency, LS Mean (SE) (Week 1, ITT Population): 1.28 (0.072)
- Change from Baseline in Stool Consistency, Mean (SD) (Week 1, ITT Population): 1.39 (1.479)
- Change from Baseline in Stool Consistency, Difference from Placebo [8]: 0.69
- Change from Baseline in Stool Consistency, LS Mean (SE) [8]: 1.30 (0.073)
- Change from Baseline in Stool Consistency, Mean (SD) [8]: 1.39 (1.469)
- Change from Baseline in Stool Consistency, Difference from Placebo [9]: 0.66
- Change from Baseline in Stool Consistency, LS Mean (SE) [9]: 1.35 (0.070)
- Change from Baseline in Stool Consistency, Mean (SD) [9]: 1.46 (1.566)
- Change from Baseline in Stool Consistency, Difference from Placebo (Week 2, ITT Population): 0.66
- Change from Baseline in Stool Consistency, LS Mean (SE) (Week 2, ITT Population): 1.38 (0.073)
- Change from Baseline in Stool Consistency, Mean (SD) (Week 2, ITT Population): 1.46 (1.583)
- Change from Baseline in Stool Consistency, Difference from Placebo [10]: 0.65
- Change from Baseline in Stool Consistency, LS Mean (SE) [10]: 1.39 (0.073)
- Change from Baseline in Stool Consistency, Mean (SD) [10]: 1.46 (1.578)
- Change from Baseline in Stool Consistency, Difference from Placebo [11]: 0.52
- Change from Baseline in Stool Consistency, LS Mean (SE) [11]: 1.41 (0.070)
- Change from Baseline in Stool Consistency, Mean (SD) [11]: 1.52 (1.570)
- Change from Baseline in Stool Consistency, Difference from Placebo (Week 3, ITT Population): 0.51
- Change from Baseline in Stool Consistency, LS Mean (SE) (Week 3, ITT Population): 1.41 (0.073)
- Change from Baseline in Stool Consistency, Mean (SD) (Week 3, ITT Population): 1.51 (1.573)
- Change from Baseline in Stool Consistency, Difference from Placebo [12]: 0.51
- Change from Baseline in Stool Consistency, LS Mean (SE) [12]: 1.42 (0.074)
- Change from Baseline in Stool Consistency, Mean (SD) [12]: 1.52 (1.578)
- Change from Baseline in Stool Consistency, Difference from Placebo [13]: 0.58
- Change from Baseline in Stool Consistency, LS Mean (SE) [13]: 1.45 (0.071)
- Change from Baseline in Stool Consistency, Mean (SD) [13]: 1.56 (1.509)
- Change from Baseline in Stool Consistency, Difference from Placebo (Week 4, ITT Population): 0.55
- Change from Baseline in Stool Consistency, LS Mean (SE) (Week 4, ITT Population): 1.45 (0.073)
- Change from Baseline in Stool Consistency, Mean (SD) (Week 4, ITT Population): 1.55 (1.494)
- Change from Baseline in Stool Consistency, Difference from Placebo [14]: 0.54
- Change from Baseline in Stool Consistency, LS Mean (SE) [14]: 1.45 (0.074)
- Change from Baseline in Stool Consistency, Mean (SD) [14]: 1.56 (1.504)
- Change from Baseline in Stool Consistency, Difference from Placebo [15]: 0.68
- Change from Baseline in Stool Consistency, LS Mean (SE) [15]: 1.53 (0.071)
- Change from Baseline in Stool Consistency, Difference from Placebo (Week 5, ITT Population): 0.68
- Change from Baseline in Stool Consistency, LS Mean (SE) (Week 5, ITT Population): 1.55 (0.074)
- Change from Baseline in Stool Consistency, Mean (SD) (Week 5, ITT Population): 1.69 (1.462)
- Change from Baseline in Stool Consistency, Difference from Placebo [16]: 0.67
- Change from Baseline in Stool Consistency, LS Mean (SE) [16]: 1.56 (0.075)
- Change from Baseline in Stool Consistency, Mean (SD) [16]: 1.70 (1.469)
- Change from Baseline in Stool Consistency, Difference from Placebo [17]: 0.74
- Change from Baseline in Stool Consistency, LS Mean (SE) [17]: 1.55 (0.072)
- Change from Baseline in Stool Consistency, Difference from Placebo (Week 6, ITT Population): 0.74
- Change from Baseline in Stool Consistency, LS Mean (SE) (Week 6, ITT Population): 1.56 (0.074)
- Change from Baseline in Stool Consistency, Mean (SD) (Week 6, ITT Population): 1.67 (1.533)
- Change from Baseline in Stool Consistency, Difference from Placebo [18]: 0.73
- Change from Baseline in Stool Consistency, LS Mean (SE) [18]: 1.56 (0.075)
- Change from Baseline in Stool Consistency, Mean (SD) [18]: 1.67 (1.529)
